pKd: −log10 of the molar value. Structures can show the parent of a compound that is named as a salt.
Tests used:
[1] = molecular target: T1, recombinant human 6×His-tagged-BRM (bromodomain-only; aa. 1377-1486) (Homo sapiens, UniProt P51531); experiment: AlphaLISA competitive BRM binding assay; details: 7 nM 6×His-BRM, 20 nM biotinylated probe
T1 construct: (bromodomain-only; aa; 1377-1486; NP_620614); made in house; host or cells: Escherichia coli
Experimental: AlphaLISA Competitive BRM Binding Assay
Compounds were serially diluted in 100% DMSO in 3-fold increments. An intermediate compound plate was created at 10% DMSO in AlphaLISA buffer (50 mM Hepes, pH 7.5, 50 mM NaCl, […] Brij-35, 0.1 mg/mL BSA) and then […] of compound transferred from the intermediate plate into a white, 384-OptiPlate (Perkin Elmer, #6007290). A solution of protein (recombinant human 6×His-tagged-BRM (bromodomain-only; aa. 1377-1486; NP_620614) expressed in Escherichia coli) and biotinylated probe are mixed and pre-incubated for 10 minutes. Following incubation, […] of protein/probe solution is added to each well of the 384-OptiPlate, resulting in final assay concentration of 7 nM protein (6×His-BRM) and 20 nM biotinylated probe. Compound and protein/probe solution were incubated at room temperature for 10 minutes. […] of anti-His conjugated AlphaLISA acceptor beads (PerkinElmer #AL128M), diluted 100× in AlphaLISA buffer, were added to each well of the assay plate. This addition was followed by a 10-minute incubation at room temperature, in the dark. Lastly, […] of streptavidin donor beads (PerkinElmer #6760002), diluted 100× in AlphaLISA buffer, were added to each well of the assay plate. Final assay plate was incubated for 15 minutes before read, signal is stable up to 4 hours after donor bead addition.
Assay plates were read using an Envision® multimode microplate reader (PerkinElmer #2105-0010) using the Europium/615 nm emission filter. Data is reported as percent displacement, 100% binding is based on the average fluorescent count (FC) of zero compound column and 0% binding is based on the average fluorescent count (FC) of zero protein (His-BRM) column. Percent displacement is calculated based on the following equation:
((100% Binding FC−Compound Well FC)/(100% Binding FC−0% Binding FC))*100
Data is fit using a 4-parameter non-linear regression analysis in GraphPad Prism.

BRM = molecular target: T2, BRM (Homo sapiens, UniProt P51531); experiment: Western blot / In-Cell Western screen of BRM degradation in SW1573 cells; assay type: cell-based; details: overnight (18-20 hours) treatment; for Dmax: read-out: Dmax (%) (% degraded)
T2 construct: In-Cell Western Screen of BRM Degradation in SW1573 Cells; endogenous in cells; host or cells: SW1573 cells
Outline: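 SW1573 cells treated overnight (18-20 hours) with compound at 0.1% final DMSO. BRM measured either by Western blot of RIPA lysates with alpha-tubulin control and chemiluminescent detection, or by In-Cell Western on fixed, permeabilized cells with LI-COR dual-channel read against alpha-tubulin; Dmax and DC50 derived.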

Structure (SMILES) | pKd [1] | DC50 (BRM) | Dmax (BRM)
Nc1nc2nc(-c3ccccc3O)cn2cc1C#Cc1ccncc1 [BRM5] | 5.00 to 5.60 | – | –
CN1CC2CCC(C1)N2c1cnc2nc(-c3ccccc3O)cn2c1 [BRM15, 2-[6-(3-methyl-3,8-diazabicyclo[3.2.1]octan-8-yl)imidazo[1,2-a]pyrimidin-2-yl] phenol] | 5.00 to 5.60 | – | –
Cn1cc(-c2cn3cc(-c4ccccc4O)nc3nc2N)cn1 [BRM18, 2-[7-amino-6-(1-methylpyrazol-4-yl)imidazo[1,2-a]pyrimidin-2-yl]phenol] | > 6.30 | – | –
CN1C2CCC1CN(c1cc(N)nc3nc(-c4ccccc4O)cn13)C2 [BRM10] | ≤ 5.00 | – | –
Nc1ccn2cc(-c3ccccc3O)nc2n1 [BRM2] | > 6.30 | – | –
Cn1cc(-c2cc(N)nc3nc(-c4ccccc4O)cn23)cn1 [BRM8] | ≤ 5.00 | – | –
COC/C=C/c1cnc2nc(-c3ccccc3O)cn2c1 [BRM17, 2-[6-[(E)-3-methoxyprop-1-enyl]imidazo[1,2-a]pyrimidin-2-yl]phenol] | 5.00 to 5.60 | – | –
CN1CCN(c2cc(N)nc3nc(-c4ccccc4O)cn23)CC1 [BRM7] | ≤ 5.00 | – | –
Oc1ccn2cc(-c3ccccc3O)nc2n1 [BRM4, 2-(2-hydroxyphenyl) imidazo[1,2-a]pyrimidin-7-ol trifluoroacetate] | ≤ 5.00 | – | –
Cn1cc(-c2cnc3nc(-c4ccccc4O)cn3c2)cn1 [BRM16, 2-[6-(1-methylpyrazol-4-yl)imidazo[1,2-a]pyrimidin-2-yl] phenol] | 5.60 to 6.30 | – | –
Oc1ccccc1-c1cn2cccnc2n1 [BRM1] | 5.60 to 6.30 | – | –
C#Cc1cc(N)nc2nc(-c3ccccc3O)cn12 [BRM6] | 5.00 to 5.60 | – | –
COC/C=C/c1cn2cc(-c3ccccc3O)nc2nc1N [BRM19, 2-[7-amino-6-[(E)-3-methoxyprop-1-enyl]imidazo [1,2-a]pyrimidin-2-yl]phenol] | > 6.30 | – | –
Nc1cc(C#Cc2ccncc2)n2cc(-c3ccccc3O)nc2n1 [BRM9] | ≤ 5.00 | – | –
Cc1ncsc1-c1ccc([C@H](C)NC(=O)[C@@H]2C[C@@H](O)CN2C(=O)[C@@H](c2cc(N3CCC(CN4CCC(O[C@H]5C[C@H](n6cnc(CN7C8CCC7CN(c7cc(-c9ccccc9O)nnc7N)C8)c6)C5)CC4)CC3)no2)C(C)C)cc1 [Compound 3, (2S,4R)-4-hydroxy-N-[(1S)-1-[4-(4-methyl-1,3-thiazol-5-yl)phenyl]ethyl]-1-[(2R)-3-methyl-2-{3-[4-({4-[(1r,3r)-3-[4-({3-[3-amino-6-(2-hydroxyphenyl)pyridazin-4-yl]-3,8-diazabicyclo[3.2.1]octan-8-yl}methyl)-1H-imidazol-1-yl]cyclobutoxy]piperidin-1-yl}methyl)piperidin-1-yl]-1,2-oxazol-5-yl}butanoyl]pyrrolidine-2-carboxamide] | – | < 0.0025 µM | > 75%
Cc1ncsc1-c1ccc([C@H](C)NC(=O)[C@@H]2C[C@@H](O)CN2C(=O)[C@@H](c2cc(N3CCC(CN4CCC(O[C@H]5C[C@H](OCC#Cc6cn7cc(-c8ccccc8O)nc7nc6N)C5)CC4)CC3)no2)C(C)C)cc1 [Compound 29] | – | < 0.0025 µM | > 75%
Oc1ccccc1-c1cn2cc(C#Cc3ccncc3)cnc2n1 [BRM11] | ≤ 5.00 | – | –
CC(C)[C@@H](C(=O)N1C[C@H](O)C[C@H]1C(=O)N[C@@H](C)c1ccc(-c2ccnn2C)cc1)c1cc(N2CCC(CN3CCC(O[C@H]4C[C@H](N5CCC(C/C=C/c6cn7cc(-c8ccccc8O)nc7nc6N)CC5)C4)CC3)CC2)no1 [Compound 44, (2S,4R)-4-hydroxy-N-[(1S)-1-[4-(1-methyl-1H-pyrazol-5-yl)phenyl]ethyl]-1-[(2R)-3-methyl-2-{3-[4-({4-[(1r,3r)-3-{4-[(2E)-3-[7-amino-2-(2-hydroxyphenyl)imidazo[1,2-a]pyrimidin-6-yl]prop-2-en-1-yl]piperidin-1-yl}cyclobutoxy]piperidin-1-yl}methyl)piperidin-1-yl]-1,2-oxazol-5-yl}butanoyl]pyrrolidine-2-carboxamide] | – | < 0.0025 µM | > 75%
COCCOCC#Cc1cn2cc(-c3ccccc3O)nc2nc1N [BRM13] | > 6.30 | – | –
Cc1ncsc1-c1ccc([C@H](C)NC(=O)[C@@H]2C[C@@H](O)CN2C(=O)[C@@H](c2cc(N3CCC(CN4CCC(O[C@H]5C[C@H](Oc6cc(N7CCN(c8cc(-c9ccccc9O)nnc8N)CC78CC8)ccn6)C5)CC4)CC3)no2)C(C)C)cc1 [Compound 6, (2S,4R)-4-hydroxy-N-[(1S)-1-[4-(4-methyl-1,3-thiazol-5-yl)phenyl]ethyl]-1-[(2R)-3-methyl-2-{3-[4-({4-[(1r,3r)-3-[(4-{7-[3-amino-6-(2-hydroxyphenyl)pyridazin-4-yl]-4,7-diazaspiro[2.5]octan-4-yl}pyridin-2-yl)oxy]cyclobutoxy]piperidin-1-yl}methyl)piperidin-1-yl]-1,2-oxazol-5-yl}butanoyl]pyrrolidine-2-carboxamide] | – | < 0.0025 µM | > 75%
Cc1ncsc1-c1ccc([C@H](C)NC(=O)[C@@H]2C[C@@H](O)CN2C(=O)[C@@H](c2cc(OCCN3CCN(CCOc4cc(N5CCN(c6cc(-c7ccccc7O)nnc6N)CC56COC6)ccn4)CC3)no2)C(C)C)cc1 [Compound 15, (2S,4R)-1-[(2R)-2-{3-[2-(4-{2-[(4-{8-[3-amino-6-(2-hydroxyphenyl)pyridazin-4-yl]-2-oxa-5,8-diazaspiro[3.5]nonan-5-yl}pyridin-2-yl)oxy]ethyl}piperazin-1-yl)ethoxy]-1,2-oxazol-5-yl}-3-methylbutanoyl]-4-hydroxy-N-[(1S)-1-[4-(4-methyl-1,3-thiazol-5-yl)phenyl]ethyl]pyrrolidine-2-carboxamide] | – | < 0.0025 µM | > 75%
CN1CCN(c2cnc3nc(-c4ccccc4O)cn3c2)CC1 [BRM14, 2-[6-(4-methylpiperazin-1-yl)imidazo[1,2-a]pyrimidin-2-yl]phenol] | 5.60 to 6.30 | – | –
Cc1ncsc1-c1ccc([C@H](C)NC(=O)[C@@H]2C[C@@H](O)CN2C(=O)[C@@H](c2cc(N3CCC(CN4CCC(O[C@H]5C[C@H](n6ccc(CN7C8CCC7CN(c7cc(-c9ccccc9O)nnc7N)C8)n6)C5)CC4)CC3)no2)C(C)C)cc1 [Compound 14, (2S,4R)-4-hydroxy-N-[(1S)-1-[4-(4-methyl-1,3-thiazol-5-yl)phenyl]ethyl]-1-[(2R)-3-methyl-2-{3-[4-({4-[(1r,3r)-3-[3-({3-[3-amino-6-(2-hydroxyphenyl)pyridazin-4-yl]-3,8-diazabicyclo[3.2.1]octan-8-yl}methyl)-1H-pyrazol-1-yl]cyclobutoxy]piperidin-1-yl}methyl)piperidin-1-yl]-1,2-oxazol-5-yl}butanoyl]pyrrolidine-2-carboxamide] | – | ≥ 0.03 µM | –
Cc1nccn1-c1ccc([C@H](C)NC(=O)[C@@H]2C[C@@H](O)CN2C(=O)[C@H](c2cc(OCCN3CCN(CCOc4cc(N5CCN(c6cc(-c7ccccc7O)nnc6N)CC56COC6)ccn4)CC3)no2)C(C)C)cc1 [Compound 21, (2S,4R)-1-[(2S)-2-{3-[2-(4-{2-[(4-{8-[3-amino-6-(2-hydroxyphenyl)pyridazin-4-yl]-2-oxa-5,8-diazaspiro[3.5]nonan-5-yl}pyridin-2-yl)oxy]ethyl}piperazin-1-yl)ethoxy]-1,2-oxazol-5-yl}-3-methylbutanoyl]-4-hydroxy-N-[(1S)-1-[4-(2-methyl-1H-imidazol-1-yl)phenyl]ethyl]pyrrolidine-2-carboxamide] | – | ≥ 0.03 µM | –
CC(C)[C@@H](C(=O)N1C[C@H](O)C[C@H]1C(=O)N[C@@H](C)c1ccc(-c2ccnn2C)cc1)c1cc(N2CCC(CN3CCC(O[C@H]4C[C@H](OCC#Cc5cn6cc(-c7ccccc7O)nc6nc5N)C4)CC3)CC2)no1 [Compound 32] | – | < 0.0025 µM | > 75%
Cc1ncsc1-c1ccc([C@H](C)NC(=O)[C@@H]2C[C@@H](O)CN2C(=O)[C@@H](c2cc(N3CCC(CN4CCC(O[C@H]5C[C@H](n6cc(CN7C8CCC7CN(c7cc(-c9ccccc9O)nnc7N)C8)cn6)C5)CC4)CC3)no2)C(C)C)cc1 [Compound 12, (2S,4R)-4-hydroxy-N-[(1S)-1-[4-(4-methyl-1,3-thiazol-5-yl)phenyl]ethyl]-1-[(2R)-3-methyl-2-{3-[4-({4-[(1r,3r)-3-[4-({3-[3-amino-6-(2-hydroxyphenyl)pyridazin-4-yl]-3,8-diazabicyclo[3.2.1]octan-8-yl}methyl)-1H-pyrazol-1-yl]cyclobutoxy]piperidin-1-yl}methyl)piperidin-1-yl]-1,2-oxazol-5-yl}butanoyl]pyrrolidine-2-carboxamide] | – | 0.0025 to 0.01 µM | > 75%
C#Cc1cn2cc(-c3ccccc3O)nc2nc1N [BRM3] | > 6.30 | – | –
C#Cc1cnc2nc(-c3ccccc3O)cn2c1 [BRM12] | ≤ 5.00 | – | –
